In PMC3479139, “Diverse Small Molecule Inhibitors of Human Apurinic/Apyrimidinic Endonuclease APE1 Identified from a Screen of a Large Public Collection” (PLoS ONE, 2012):
pIC50: −log10 of the molar value.

Assays:
APE1 [1] = molecular target: T1, APE1 (Homo sapiens, UniProt P27695); test: Gel-based APE1 incision assay with fluorescence (TAMRA) detection; format: biochemical
T1 construct: made in house
Method: To test the compounds’ inhibitory activity after the primary screen, two assays designed to monitor the cleavage of substrate to product through electrophoretic separation were utilized. The radiotracer incision assay, utilizing a ^32P-labeled substrate, was performed essentially as described [21], [31], [32]. Incision reactions utilizing ^32P-labeled substrate were carried out for 5 min at 37°C. After the addition of an equal volume of stop buffer (0.05% bromophenol blue and xylene cyanol, 20 mM EDTA, 95% formamide), the substrate and product were separated on a standard polyacrylamide denaturing gel and quantified by PhosphorImager analysis [32]. […] APE1 cleavage of the substrate results in a 18-mer TAMRA-labeled fragment which was separated by a non-denaturing polyacrylamide gel electrophoresis and quantitated in a Gel Doc XR imaging system, BioRad (Hercules, CA). The advantage of this assay is that it can be used in a relatively high throughput mode with the inhibitors tested at a range of concentrations (0.17 µM to 125 µM was used here). APE1 (0.15 nM) was added to a reaction mixture of 20 µL containing assay buffer (40 mM HEPES pH 7.5, 50 mM NaCl, 1 mM MgCl2 and 2 mM DTT), and labeled ds DNA substrate (final 75 nM). The mixture was incubated at RT for 15 min, and the reaction was stopped by the addition 20 µL of 2X dye stop solution (10% glycerol, 20 mM EDTA and bromophenol blue). Then 10 µL of the mixture was resolved on 20% polyacrylamide gel in 1X Tris-borate EDTA running buffer at 250 V for 40 min.
To eliminate false positive hits, all 595 confirmed molecules were tested for their ability to inhibit APE1 incision activity using biochemical assays that involve electrophoretic separation of the substrate and cleavage product.

E. coli Endo IV = molecular target: T2, E. coli Endo IV (Escherichia coli, UniProt P0A6C1); test: E. coli Endo IV profiling counterscreen; format: biochemical; conditions: read-out: EndoIV IC50;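 further: selectivity counterscreen of candidate APE1 inhibitors against the bacterial endonuclease Endo IV, run in the same assay format as the primary APE1 high-throughput screen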
T2 construct: made in house
From the text: In order to screen out nonselective compounds, such as non-specific DNA binders and inhibitors of related enzymes, we used a miniaturized ThO DNA displacement assay and a counterscreen against the bacterial endonuclease E. coli Endo IV, respectively, following the previously published protocols [21].
To probe the selectivity of the candidate APE1 inhibitors, we tested them against E. coli EndoIV [36], employing the same assay as used in the HTS.

APE1 [2] = molecular target: T1, APE1; test: Fluorescence polarization (FP) displacement assay of APE1 binding to AP-DNA probe; conditions: read-out: FP IC50;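 further: TAMRA 5′-labeled duplex DNA with THF abasic site (5 nM) and APE1 (20 nM), Mg2+-free buffer, 15 min at room temperature, inhibition seen as lowered polarization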
[3] = molecular target: double-stranded 17-mer DNA fragment; test: ThO (Thiazole Orange) DNA displacement assay; format: binding; conditions: read-out: ThO-DNA binding IC50;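 further: miniaturized displacement of the intercalating dye from unlabeled duplex DNA, used to flag nonspecific DNA binders, chiefly intercalators, groove binders may be missed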
APE1 [4] = molecular target: T1, APE1; test: Fluorogenic kinetic qHTS APE1 incision assay (primary screen and retest of cherrypicked samples); format: biochemical;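 further: purified APE1 cleaving a fluorophore/dark-quencher labelled 17-mer duplex DNA bearing a tetrahydrofuran AP site, fluorescence rise followed kinetically over the first 2 min, inhibition normalized to controls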
[5] = entries 113-223: fluorophore detection, estimated IC50, read-out: Gel-based electrophoretic separation assay with fluorophore detection, estimated IC50 (column headed Radiotracer Assay (%Activity))
[6] = initial quantitative high-throughput screen, read-out: APE1 qHTS IC50
[7] = retest of cherrypicked sample, read-out: APE1 Retest IC50
[8] = estimated IC50, fluorophore detection, entries 113-223, read-out: F-PAGE Assay IC50

T1 sequence (P27695 whole entry): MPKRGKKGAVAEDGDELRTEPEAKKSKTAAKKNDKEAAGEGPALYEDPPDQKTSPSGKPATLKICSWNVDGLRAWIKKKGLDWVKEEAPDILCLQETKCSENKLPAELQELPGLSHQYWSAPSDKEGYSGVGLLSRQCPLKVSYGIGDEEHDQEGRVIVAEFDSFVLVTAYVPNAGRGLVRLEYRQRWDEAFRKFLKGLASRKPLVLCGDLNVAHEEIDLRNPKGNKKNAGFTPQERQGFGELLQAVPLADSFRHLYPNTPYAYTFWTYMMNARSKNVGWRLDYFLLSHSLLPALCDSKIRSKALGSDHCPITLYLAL

SMILES | pIC50 (APE1 [1]; [5]) | pIC50 (E. coli Endo IV) | pIC50 (APE1 [2]) | pIC50 [3] | pIC50 (APE1 [4]; [6]) | pIC50 (APE1 [4]; [7]) | pIC50 (APE1 [1]; [8])
COc1ccc(OCCOc2ccc(/C=C3\C(=N)N4N=C(C)SC4=NC3=O)cc2)cc1 [MLS001359901] | 5.00 | < 4.24 | < 4.24 | < 4.24 | 5.02 | 5.24 | –
O=C(O)C1CCCCC1C(=O)Nc1cccc(Br)c1 (stereo not shown) [MLS002152987] | – | < 4.24 | < 4.24 | < 4.24 | 6.30 | 5.29 | 6.05
COc1ccc(NC(=O)COC(=O)c2cc3c(s2)CCC3)cc1 [MLS002159150] | – | < 4.24 | 4.44 | < 4.24 | 5.28 | 4.94 | 5.15
Cc1ccc(NC(=O)C(c2ccccc2)N2CCN(CC(=O)N3CCOCC3)CC2)cc1Cl (stereo not shown) [MLS002162303] | – | < 4.24 | < 4.24 | < 4.24 | 4.97 | 5.04 | 5.46
O=C(NC1CC1)C1CCN(S(=O)(=O)c2cc([N+](=O)[O-])ccc2Cl)CC1 [MLS002162311] | – | < 4.24 | < 4.24 | 4.44 | 4.97 | 4.49 | 5.05
O=C(CSc1nnc(Nc2ccccc2F)s1)NC(=O)CN1CCCC1=O [MLS002163634] | – | < 4.24 | 4.74 | < 4.24 | 4.97 | 4.99 | 5.05
COc1ccc(NC(=O)c2cc(-c3ccco3)nc3ccccc23)cn1 [MLS002164354] | – | 4.64 | 4.44 | < 4.24 | 4.92 | 4.84 | 5.15
CCOc1ccc(NC(=O)c2cccc(-n3cccc3)c2)cc1S(=O)(=O)N1CCOCC1 [MLS002164959] | – | < 4.24 | < 4.24 | < 4.24 | 5.89 | 4.94 | 5.55
NS(=O)(=O)c1ccc(NC(=O)CSc2nnc(NC3CC3)s2)cc1 [MLS002169032] | – | < 4.24 | < 4.24 | < 4.24 | 4.97 | 4.99 | 5.20
O=C(COC(=O)Cc1cccc(C(F)(F)F)c1)NCc1ccco1 [MLS002169571] | – | < 4.24 | < 4.24 | < 4.24 | 4.97 | 4.34 | 5.15
COCCN(CC(=O)Nc1cccc(C)c1C)C(=O)c1cc2c(s1)CCC2 [MLS002170765] | 4.75 | < 4.24 | < 4.24 | < 4.24 | 4.82 | 4.74 | –
O=C(COC(=O)c1ccccc1)Nc1ncc([N+](=O)[O-])s1 [MLS002171184] | – | < 4.24 | < 4.24 | 4.49 | 5.47 | 4.94 | 5.80
Nc1c(C(=O)OCC(=O)Nc2cccc([N+](=O)[O-])c2)[nH]c(=O)[nH]c1=O [MLS002171489] | – | < 4.24 | < 4.24 | < 4.24 | 5.08 | 4.79 | 5.10
Cc1sc2ncnc(SCC(=O)Nc3ncccc3O)c2c1C [MLS002181609] | 4.85 | < 4.24 | 4.69 | < 4.24 | 4.52 | 4.99 | –
C=CC1=C(C(=O)O)N2C(=O)[C@@H](NC(=O)/C(=N\OCC(=O)O)c3csc(N)n3)[C@H]2SC1 [MLS002222332] | – | < 4.24 | < 4.24 | < 4.24 | 4.92 | – | 5.55
CCOC(=O)C1CCCN(C(=O)c2cc(-c3ccco3)nc3ccccc23)C1 (stereo not shown) [MLS002245402] | – | < 4.24 | < 4.24 | 4.49 | 5.08 | 4.74 | 5.40
CCOc1ccc(NC(=O)CN(C)C(=O)C2COc3ccccc3O2)cc1OCC (stereo not shown) [MLS002248300] | 4.70 | < 4.24 | < 4.24 | < 4.24 | 4.67 | 4.49 | –
COc1ccc(S(=O)(=O)N2CCN(C(=O)c3cc4c(s3)CCC4)CC2)cc1 [MLS002248682] | – | < 4.24 | < 4.24 | < 4.24 | 5.57 | 5.09 | 5.70
NC(=O)c1ccc(NC(=O)COC(=O)c2cc3c(s2)CCC3)cc1 [MLS002251079] | – | < 4.24 | 4.74 | < 4.24 | 5.52 | 4.89 | 5.46
CC(=O)c1cccc(OCC(=O)N(C)CC(=O)NCc2ccco2)c1 [MLS002251323] | – | < 4.24 | < 4.24 | < 4.24 | 5.02 | 5.04 | 5.40
COc1ccc(S(=O)(=O)NCCC(=O)NC2CCCCC2C)cc1[N+](=O)[O-] (stereo not shown) [MLS002251710] | 4.95 | < 4.24 | 4.69 | < 4.24 | 4.57 | 4.79 | –
CC1(C)CC2CC(C)(CN2C(=O)COC(=O)c2ccc(O)cc2O)C1 (stereo not shown) [MLS002251953] | 4.80 | < 4.24 | < 4.24 | < 4.24 | 4.97 | 4.84 | –
Cn1cnnc1SCC(=O)Nc1ncc([N+](=O)[O-])s1 [MLS002252055] | – | < 4.24 | < 4.24 | 4.39 | 5.08 | 5.19 | 5.30
O=C(C[C@@H]1C/C=C\C[C@H](Cc2ccc(F)cc2)C(=O)OC[C@@H](Cc2c[nH]c3ccccc23)NC1=O)NCCO [MLS002320105] | – | < 4.24 | < 4.24 | < 4.24 | 4.92 | – | 5.25
CC(C)(C)OC(=O)C[C@@H]1C/C=C\C[C@H](CC(=O)NCCO)C(=O)N2CCC[C@H]2COC1=O [MLS002320191] | – | < 4.24 | < 4.24 | < 4.24 | 5.17 | 4.69 | 5.10
CC(C)(C)OC(=O)C[C@@H]1C/C=C\C[C@@H](CC(=O)NCCO)C(=O)N[C@H](Cc2c[nH]c3ccccc23)COC1=O [MLS002320206] | 4.70 | < 4.24 | < 4.24 | < 4.24 | 4.82 | 4.79 | –
O=C(C[C@@H]1C/C=C\C[C@H](NC(=O)OCC2c3ccccc3-c3ccccc32)C(=O)OC[C@@H]2CCCN2C1=O)NCCO [MLS002320455] | 4.65 | < 4.24 | < 4.24 | < 4.24 | 5.02 | 4.99 | –
